Experimental data from US20090105239A1, “2-PYRIDINE DERIVATIVES AS INHIBITORS OF NEUTROPHILE ELASTASE” (priority 2005, published 2009).

Each compound was assayed against T1, Human Neutrophil Elastase (HNE) (Homo sapiens, UniProt P08246) (assay: Human Neutrophil Elastase Quenched-FRET Assay). Conditions: HNE purified from serum 1.7 nM, substrate MeOSuc-AAPV-AMC 100 μM, 30 minutes at room temperature; read-out: Inhibition of Human Neutrophil Elastase IC50.
T1 construct: Human Neutrophil Elastase (HNE) purified from serum; purchased Calbiochem 324681; host or cells: purified from human serum (so in the source)
T1 sequence (P08246 30-247 limits assumed): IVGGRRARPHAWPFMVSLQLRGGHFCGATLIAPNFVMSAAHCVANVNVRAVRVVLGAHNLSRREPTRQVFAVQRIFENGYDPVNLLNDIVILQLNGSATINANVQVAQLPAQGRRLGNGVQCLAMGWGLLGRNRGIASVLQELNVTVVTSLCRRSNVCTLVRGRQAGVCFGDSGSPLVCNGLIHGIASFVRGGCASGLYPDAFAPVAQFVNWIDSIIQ
Assay type: biochemical
Experimental: Human Neutrophil Elastase Quenched-FRET Assay
HNE was stored in 50 mM sodium acetate (NaOAc), 200 mM sodium chloride (NaCl), pH 5.5 with added 30% glycerol at −20° C. […] The substrate was stored in dimethyl sulphoxide (DMSO) at −20° C. […] The assay buffer constitution was: 100 mM Tris(hydroxymethyl)aminomethane (TRIS) (pH 7.5) and 500 mM NaCl. The enzyme and the compounds were incubated at room temperature for 15 minutes. Then 30 μl substrate in assay buffer was added. The assay was incubated for 30 minutes at room temperature. […] The assay was then stopped by adding 60 μl stop solution (140 mM acetic acid, 200 mM sodium monochloroacetate, 60 mM sodium acetate, pH 4.3).

Structure (SMILES) | IC50
Cc1c([S+]([O-])c2ccc(C#N)cc2)cc(C(=O)NCC2(O)CC2)c(=O)n1-c1cccc(C(F)(F)F)c1 (stereo not shown) [Example 27, 5-[(4-Cyanophenyl)sulfinyl]-N-[(1-hydroxycyclopropyl)methyl]-6-methyl-2-oxo-1-[3-(trifluoromethyl)phenyl]-1,2-dihydropyridine-3-carboxamide] | 9 nM
Cc1c([S+]([O-])c2ccc(C#N)cc2)cc(C(=O)NCC(C)O)c(=O)n1-c1cccc(C(F)(F)F)c1 (stereo not shown) [Example 49, 5-[(4-Cyanophenyl)sulfinyl]-N-(2-hydroxypropyl)-6-methyl-2-oxo-1-[3-(trifluoromethyl)phenyl]-1,2-dihydropyridine-3-carboxamide] | 4 nM
CC(=O)Nc1ccc(S(=O)(=O)c2cc(C(=O)NCc3ccc(S(C)(=O)=O)cc3)c(=O)n(-c3cccc(C(F)(F)F)c3)c2C)cc1 [Example 59, 5-{[4-(Acetylamino)phenyl]sulfonyl}-6-methyl-N-[4-(methylsulfonyl)benzyl]-2-oxo-1-[3-(trifluoromethyl)phenyl]-1,2-dihydropyridine-3-carboxamide] | 14 nM
Cc1c(S(=O)(=O)O)cc(C(=O)NCc2ccc(S(C)(=O)=O)cc2)c(=O)n1-c1cccc(C(F)(F)F)c1 [Example 86, 2-Methyl-5-({[4-(methylsulfonyl)benzyl]amino}carbonyl)-6-oxo-1-[3-(trifluoromethyl)phenyl]-1,6-dihydropyridine-3-sulfonic acid] | 45 nM
